# Laboratory results reported in patent publication US4826814A, “Tripeptide derivatives” (Dainippon Pharmaceutical Co., Ltd., priority 1986, dated 1989).
# Starred links: 1 amine or outer side, 2 acyl side, 3 side chain; linkers in the order of their positions; H or OH if unused. Non-standard residues stand in square brackets, D forms with d. Residues, ends and D or L forms follow the SMILES beside them. *: point of attachment. d(γGlu) = O=C(O)[C@@H](CCC(=O)[*:2])N[*:1]; Oic = O=C(O)[C@@H]1C[C@@H]2CCCC[C@@H]2N1; Cbz = O=C(OCc1ccccc1)*
# System: renal hypertensive rats
# Assay: Antihypertensive activity after single oral administration in two-kidney Goldblatt type renal hypertensive rats (tail-cuff blood pressure)
# Assay type: in vivo, rat
# Settings: blood pressure, renal hypertensive rats, single oral administration, dose of 10 mg/kg, 9 hours
# Source text: Male Sprague Dawley rats (5 weeks old) were subjected to constriction of the left renal artery with a silver clip (internal diameter: 0.22 mm) under light ether anesthesia. The right kidney and renal artery were left intact. About 6-10 weeks after clipping, rats showing a blood pressure above 180 mmHg were used. These treated rats are named two-kidney Goldblatt type renal hypertensive rats and considered as a typical model of reninangiotensin dependent hypertension.
# The blood pressure was measured by a tail-cuff method using a programmed electro-sphygmomanometer (PE-300, Narco Biosystem, U. S. A.) after warming at 38° C. for 10 minutes in heating box.
# The antihypertensive activity of test compounds was evaluated after single oral administration in renal hypertensive rats (3-5 rats/group).
row,SMILES,Charge in pressure at 9 hours administration
1,"NCCCC[C@H](NC(=O)OCc1ccccc1)C(=O)N[C@H](CCC(=O)N1[C@H](C(=O)O)C[C@@H]2CCCC[C@@H]21)C(=O)O [Example 11, (2S,3aS,7aS)-1-(N^2 -Benzyloxycarboxyl-L-lysyl-gamma-D-glutamyl)octahydro-1H-indole-2-carboxylic acid] (Cbz-Lys-[d(γGlu)]-[Oic]-OH)",-37
2,"NCCC[S+]([O-])C[C@H](NC(=O)OCc1ccccc1)C(=O)N[C@H](CCC(=O)N1[C@H](C(=O)O)C[C@@H]2CCCC[C@@H]21)C(=O)O (stereo partly drawn) [Example 76, (2S,3aS,7aS)-1-[N-Benzyloxycarbonyl-S-(3-aminopropyl)-L-cysteinyl-gamma-D-glutamyl]octahydro-1H-indole-2-carboxylic acid sulfoxide]",-31
3,"NCCCC[C@H](NC(=O)c1ccncc1)C(=O)N[C@H](CCC(=O)N1[C@H](C(=O)O)C[C@@H]2CCCC[C@@H]21)C(=O)O [Example 29, (2S,3aS,7aS)-1-(N^2 -Isonicotinoyl-L-lysyl-gamma-D-glutamyl)octoahydro-1H-indole-2-carboxylic acid]",-38
4,"NCCCC[C@H](NC(=O)OC1CCCC1)C(=O)N[C@H](CCC(=O)N1[C@H](C(=O)O)C[C@@H]2CCCC[C@@H]21)C(=O)O [Example 30, (2S,3aS,7aS)-1-(N^2 -Cyclopentyloxycarbonyl-L-lysyl-gamma-D-glytamyl)octahydro-1H-indole-2-carboxylic acid]",-38
5,"NCCCC[C@H](NC(=O)OCCc1ccccn1)C(=O)N[C@H](CCC(=O)N1c2ccccc2C[C@H]1C(=O)O)C(=O)O [Example 38, 1-[N^2-(2-Pyridineethoxycarbonyl)-L-lysyl-gamma-D-glutamyl]indoline-2(S)-carboxylic acid]",-27
6,"NCCCC[C@H](NC(=O)C1CCC1)C(=O)N[C@H](CCC(=O)N1[C@H](C(=O)O)C[C@@H]2CCCC[C@@H]21)C(=O)O [Example 18, (2S,3aS,7aS)-1-(N^2 -Cyclobutanecarbonyl-L-lysl-gamma-D-glutamyl)octahydro-1H-indole-2-carboxylic acid]",-42

# Target: T1, ACE preparation (rabbit lung) (Oryctolagus cuniculus, UniProt P12822)
# T1 construct: an ACE preparation (rabbit lung); from tissue; host or cells: rabbit lung
# T1 sequence (P12822 34-1310): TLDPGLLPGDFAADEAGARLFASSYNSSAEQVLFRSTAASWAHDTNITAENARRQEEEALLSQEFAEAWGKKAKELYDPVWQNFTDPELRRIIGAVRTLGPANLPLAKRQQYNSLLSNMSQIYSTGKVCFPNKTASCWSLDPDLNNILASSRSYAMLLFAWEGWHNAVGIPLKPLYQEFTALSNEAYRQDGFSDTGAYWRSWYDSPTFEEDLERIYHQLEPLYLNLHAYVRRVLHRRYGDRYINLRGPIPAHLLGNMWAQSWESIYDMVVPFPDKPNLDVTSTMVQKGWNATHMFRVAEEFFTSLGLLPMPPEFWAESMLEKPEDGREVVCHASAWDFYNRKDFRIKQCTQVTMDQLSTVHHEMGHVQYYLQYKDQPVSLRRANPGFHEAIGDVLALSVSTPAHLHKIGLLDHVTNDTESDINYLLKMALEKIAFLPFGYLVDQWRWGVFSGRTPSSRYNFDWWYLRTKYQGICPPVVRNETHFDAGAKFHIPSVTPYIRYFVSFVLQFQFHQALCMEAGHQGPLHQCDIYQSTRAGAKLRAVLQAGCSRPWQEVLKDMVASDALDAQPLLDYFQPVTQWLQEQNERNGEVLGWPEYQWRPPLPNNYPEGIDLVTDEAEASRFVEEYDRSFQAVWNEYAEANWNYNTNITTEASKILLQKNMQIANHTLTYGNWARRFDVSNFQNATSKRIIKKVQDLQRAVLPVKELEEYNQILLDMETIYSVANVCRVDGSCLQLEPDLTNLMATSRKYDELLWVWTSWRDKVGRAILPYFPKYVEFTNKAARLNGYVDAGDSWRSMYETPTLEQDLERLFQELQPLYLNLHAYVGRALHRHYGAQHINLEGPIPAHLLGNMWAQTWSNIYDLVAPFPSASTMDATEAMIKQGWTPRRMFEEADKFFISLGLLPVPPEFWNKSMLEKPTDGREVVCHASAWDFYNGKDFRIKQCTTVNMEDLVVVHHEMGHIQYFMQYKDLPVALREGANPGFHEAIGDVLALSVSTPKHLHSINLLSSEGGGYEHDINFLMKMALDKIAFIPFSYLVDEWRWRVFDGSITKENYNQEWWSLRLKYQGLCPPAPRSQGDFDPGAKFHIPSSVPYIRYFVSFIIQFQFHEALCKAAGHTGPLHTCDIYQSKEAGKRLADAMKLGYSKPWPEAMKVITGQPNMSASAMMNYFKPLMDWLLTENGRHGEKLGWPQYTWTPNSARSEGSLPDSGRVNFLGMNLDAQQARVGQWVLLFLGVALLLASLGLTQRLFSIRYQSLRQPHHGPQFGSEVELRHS
# Assay: In vitro ACE inhibitory activity (hippuryl-L-histidyl-L-leucine substrate)
# Assay type: biochemical
# Settings: 37° C., 30 minutes, pH 8.3
# Protocol: The assay medium contained an ACE preparation (rabbit lung), synthetic substrate (hippuryl-L-histidyl-L-leucine 5 mM), NaCl (300 mM) and phosphate buffer (100 mM, pH 8.3). It was mixed to a final volume of 0.300 ml and incubated at 37° C. for 30 minutes in the presence or absence of test compounds. After the reaction was terminated by adding 300 μl of 1N HCl, hippuric acid formed was extracted with 2 volume of ethyl acetate. After ethyl acetate was evaporated and distilled water was added, the hippuric acid was determined from its absorbance at 228 nm by spectrophotometer (Hitachi 100-41).
# The degree of ACE inhibition was calculated from activities with and without test compounds. The IC50 value (molar concentration required for the 50% inhibition of ACE activity) was obtained from a dose-inhibition curve.
row,IC50 [nM],SMILES
1,13,"NCCCC[C@H](NC(=O)OCCc1ccccc1)C(=O)N[C@H](CCC(=O)N1c2ccccc2C[C@H]1C(=O)O)C(=O)O [Example 3, 1-(N^2 -Phenethyloxycarbonyl-L-lysyl-gamma-D-glutamyl)indoline-2(S)-carboxylic acid]"
2,5.4,"COc1ccccc1C(=O)N[C@@H](CCCCN)C(=O)N[C@H](CCC(=O)N1[C@H](C(=O)O)C[C@@H]2CCCC[C@@H]21)C(=O)O [Example 70, (2S,3aS,7aS)-1-[N^2-(2-Methoxybenzoyl)-L-lysyl-gamma-D-glutamyl]octahydro-1H-indole-2-carboxylic acid]"
3,5.6,"NCCCC[C@H](NC(=O)OCc1ccccc1)C(=O)N[C@H](CCC(=O)N1c2ccccc2C[C@H]1C(=O)O)C(=O)O [Example 1, 1-(N^2 -Benzyloxycarbonyl-L-lysyl-gamma-D-glutamyl)indoline-2(S)-carboxylic acid]"
4,5.9,"NCCCC[C@H](NC(=O)c1cccnc1Cl)C(=O)N[C@H](CCC(=O)N1[C@H](C(=O)O)C[C@@H]2CCCC[C@@H]21)C(=O)O [Example 54, (2S,3aS,7aS)-1-[N^2-(2-Chloronicotinoyl)-L-lysyl-gamma-D-glutamyl]octahydro-1H-indole-2-carboxylic acid]"
5,5,"NCCCC[C@H](NC(=O)OC1CCCCC1)C(=O)N[C@H](CCC(=O)N1[C@H](C(=O)O)C[C@@H]2CCCC[C@@H]21)C(=O)O [Example 31, (2S,3aS,7aS)-1-(N^2 -Cyclohexyloxycarbonyl-L-lysyl-gamma-D-glutamyl)octahydro-1H-indole-2-carboxylic acid]"
6,11,"NCCCC[C@H](NC(=O)c1ccccc1)C(=O)N[C@H](CCC(=O)N1c2ccccc2C[C@H]1C(=O)O)C(=O)O [Example 39, 1-(N^2 -Benzoyl-L-lysyl-gamma-D-glutamyl)indoline-2(S)-carboxylic acid]"
